From patent US20240226072A1 (Stichting Het Nederlands Kanker Instituut, priority 2022, published 2024)
Like-named read-outs stand apart in the source and are kept apart here.

Experiments:
[1] = Carboxylesterase pharmacokinetic experiment: oral cabazitaxel 10 mg/kg, 2 h, in wild-type, Ces1cde−/− and Ces1−/− mice; format: in vivo; conditions: for lower plasma AUC0-2h / reduction of Cmax: oral cabazitaxel 10 mg/kg; for Kp at 2 h / Cmax / Tmax / AUC(0-t): male, FVB, mouse, po, 10 mg/kg; for Cmax / Tmax / AUC(0-t): plasma; for AUC(0-t): read-out: AUC0-120min
Protocol: The experiment was terminated by cardiac puncture at 2 hours. The organ collection and sample pretreatment were as described above.
Differences were considered statistically significant when P<0.05. All data are presented as geometric mean±SD.
This experiment was performed in the absence of ritonavir.

[2] = Cyp3a−/− compared to wild-type mice; earlier study; cited from earlier work
[3] = Preclinical population PK model (NONMEM) of oral cabazitaxel and ritonavir in Cyp3aXAV mice
Protocol: Population PK modeling was performed using nonlinear mixed-effects modeling in NONMEM (version 7.5.0, ICON Development Solutions, Ellicott City, MD, USA) with a gfortran compiler and Perl-speaks-NONMEM (version 5.3.0) (Beal SL SL. NONMEM user guides. Ellicott City, Maryland, USA. 1989; Lindbom et al. Comput Methods Programs Biomed. 2005). All models were fit with first order conditional estimation method with η-ε interaction (FOCE-I). Pirana (version 2.9.9) was used as a modeling interface. R (version 4.0.4) was used for data management, visual model evaluation, and analysis and visualization of simulation data.
Due to its predictive value for human hepatic CYP3A metabolism, the PK data obtained in the Cyp3aXAV mouse model was used in the current study (Damoiseaux et al. Pharmaceuticals. 2022). […] Depending on the study, each experiment was terminated by cardiac puncture at either 2 hours or 24 hours after administration.
In the development of the compartmental PK models, inclusion of model elements, such as the number of compartments, inter-individual variability (IIV), covariate effects, and residual random effects were guided by differences in objective function value (OFV), plausibility of parameter estimates, observation of trends in goodness of fit plots, and differences in estimation precision.
This well-stirred liver model assumes the liver to have a fixed volume and blood flow and hepatic clearance (CL) is calculated as a function of hepatic blood flow (Q1) and intrinsic clearance (CLi) following Eq.1.
In the variability model, it was assumed that IIV is log-normally distributed. With Eq. 5 defining the expression for the individual parameter estimate θi.
Where θpop represents population mean parameter estimate and ηi represents its individual deviation, which is distributed following N (0, ω^2). For both PK models, in was assumed that the residual error has both an additive and proportional component. The additive component of the error model was included only for observations which were designated as <LLOQ. Time points for which no quantity of either drug could be detected were discarded. For determination of the LLOQ a signal-to-noise ratio (S/N) of 10 is applied. Thus, a fixed additive error was set for observations <LLOQ which was set to 1/10th of the LLOQ for the respective compound. Consequently, individual model predictions are related to observations following Eq. 6.
Where Cobs,ij represents the observation for the ith subject and the jth measurement. With Cpred,ij the respective prediction. Both the proportional error ep, and additive error εa,ij were assumed to be distributed following N (0, σ^2). LLOQij was included as a data record, which was set to one for observations that were below the limit of quantification.
Evaluation of candidate models was based on plausibility and precision of parameter estimates, observation of trends in goodness-of-fit plots, η and ε-shrinkage, and decreases in OFV for which a change in OFV of 3.84, corresponding to α=0.05, was considered to be significant for hierarchical models. All models were required to achieve successful minimization. The predictive performance of the model was evaluated by simulating 500 datasets using the candidate models from which the 5th, 50th, and 95th percentiles were calculated, along with their 95% confidence intervals, which were compared with the 5th, 50th, and 95th of the observations using a visual predictive check (VPC). The uncertainty in the final parameter estimates was evaluated using a sampling importance-resampling (SIR) algorithm (Dosne et al. J Pharmacokinet Pharmacodyn. 2017).

[4] = in vivo
Protocol: Male wild-type, Oatp1a/1b^−/−, transgenic OATP1B1 and OATP1B3 mice in an Oatp1a/1b^−/− background, Oatp1a/1b/2b1b^−/−, Ces1b^−/− and Ces1cdeb^−/− mice were used.
The Accord (20 mg/mL) formulation contains polysorbate 80, citric acid and 395 mg/mL anhydrous ethanol. […] The stock solution was further diluted 5-fold with water to obtain a 2.5 mg/mL dosing solution for oral administration. The vehicle solution only consisted of polysorbate 80, ethanol and water (1:1:8, v/v/v). All dosing solutions were prepared freshly on the day of the experiment.
The termination time point was at 2 hours and 15 minutes. […] The termination, organ collection and sample pretreatment were as described above.
Non-compartmental analysis was performed to estimate the pharmacokinetic parameters by using the software package PK solutions 2.0.2 (SUMMIT, Research Service). The linear trapezoidal rule without extrapolating to infinity was used to calculate the area under the curve (AUC) of the plasma-concentration time curve for all the compounds. The peak plasma concentration (Cmax) and the time to reach peak plasma concentration (Tmax) were obtained directly from the individual raw data. […] GraphPad Prism 9 (GraphPad Software Inc., La Jolla, CA) was used for the statistical analysis and the preparation of the graphs. […]

[5] = Ces1cde−/− compared to wild-type mice
[6] = Ces1−/− compared to wild-type mice
[7] = Ces1cde−/− mice, oral 10 mg/kg cabazitaxel
[8] = Ces1−/− mice, oral 10 mg/kg cabazitaxel
[9] = wild-type mice, oral 10 mg/kg cabazitaxel
[10] = wild-type mice, oral 10 mg/kg cabazitaxel, 2 h
[11] = cabazitaxel PK model, allometrically scaled to a 70 kg human
[12] = inter-individual variability, population PK model, Cyp3aXAV mice

CO[C@H]1C(=O)[C@]2(C)[C@@H](OC)C[C@H]3OC[C@@]3(OC(C)=O)[C@H]2[C@H](OC(=O)c2ccccc2)[C@]2(O)C[C@H](OC(=O)[C@H](O)[C@@H](NC(=O)OC(C)(C)C)c3ccccc3)C(C)=C1C2(C)C [cabazitaxel]
lower absolute testis concentration ([1]; Ces1cde−/− compared to wild-type mice, 2 h): 2.3 fold
lower plasma AUC0-2h [1, 5]: 6.7 fold
reduction of Cmax [1, 5]: 5.4 fold
SIC (% of dose), small intestinal content as percentage of dose ([1]; Ces1cde−/− mice, oral 10 mg/kg cabazitaxel, 2 h): 0.16 ± 0.09 % of dose
lower absolute testis concentration ([1]; Ces1−/− compared to wild-type mice, 2 h): 2.6 fold
lower plasma AUC0-2h [1, 6]: 7.2 fold
reduction of Cmax [1, 6]: 6.0 fold
SIC (% of dose), small intestinal content as percentage of dose ([1]; Ces1−/− mice, oral 10 mg/kg cabazitaxel, 2 h): 0.10 ± 0.04 % of dose
Kp at 2 h ([1]; brain, Ces1cde−/− mice, oral 10 mg/kg cabazitaxel, 2 h, read-out: Brain-to-plasma ratio): 0.28 ± 0.06
Kp at 2 h ([1]; brain, Ces1−/− mice, oral 10 mg/kg cabazitaxel, 2 h, read-out: Brain-to-plasma ratio): 0.43 ± 0.06
Kp at 2 h ([1]; brain, wild-type mice, oral 10 mg/kg cabazitaxel, 2 h, read-out: Brain-to-plasma ratio): 0.04 ± 0.003
Kp at 2 h ([1]; liver, Ces1cde−/− mice, oral 10 mg/kg cabazitaxel, 2 h, read-out: Liver-to-plasma ratio): 13.1 ± 4.6
Kp at 2 h ([1]; liver, Ces1−/− mice, oral 10 mg/kg cabazitaxel, 2 h, read-out: Liver-to-plasma ratio): 14.9 ± 4.49
Kp at 2 h ([1]; liver, wild-type mice, oral 10 mg/kg cabazitaxel, 2 h, read-out: Liver-to-plasma ratio): 1.64 ± 0.59
Cmax [1, 7]: 1080 ± 450 nM
Tmax [1, 7]: 25 min
AUC(0-t) [1, 7]: 1.03 ± 0.395 µM·h
Cmax [1, 8]: 969 ± 219 nM
Tmax [1, 8]: 32.5 min
AUC(0-t) [1, 8]: 0.946 ± 0.22 µM·h
Cmax [1, 9]: 5830 ± 1800 nM
Tmax [1, 9]: 25 min
AUC(0-t) [1, 9]: 6.86 ± 1.94 µM·h
CLiver [1, 10]: 2035 ± 460 pmol/g
Cbrain [1, 10]: 49.9 ± 5.96 pmol/g
SIC (% of dose), small intestinal content as percentage of dose [1, 10]: 0.11 ± 0.06 % of dose
previously observed difference of plasma AUC [2]: approximately 6 fold
Ka, 10 mg/kg, First-order absorption rate constant when co-administered with 10 mg/kg ritonavir ([3]; cabazitaxel PK model): 2.62 h⁻¹
Ka, 25 mg/kg, First-order absorption rate constant when co-administered with 25 mg/kg ritonavir ([3]; cabazitaxel PK model): 1.22 h⁻¹
Ka, First-order absorption rate constant ([3]; cabazitaxel PK model, Cyp3aXAV mice): 5.83 h⁻¹
CLint, Uninhibited intrinsic clearance ([3]; cabazitaxel PK model, Cyp3aXAV mice, allometrically scaled to a 70 kg human): 106 L/h
Q2, Inter compartment clearance [3, 11]: 27.7 L/h
VP, Peripheral volume [3, 11]: 613 L
IIV F [3, 12]: 22.7 CV %
IIV Ka [3, 12]: 63.4 CV %
VC, Central volume ([3]; population PK model, Cyp3aXAV mice, allometrically scaled to a 70 kg human): 293 L

CC(C)c1nc(CN(C)C(=O)N[C@H](C(=O)N[C@@H](Cc2ccccc2)C[C@H](O)[C@H](Cc2ccccc2)NC(=O)OCc2cncs2)C(C)C)cs1 [ritonavir]
Tmax ([4]; male, FVB, mouse, in vivo, po, 25 mg/kg): 65 min
Cbrain ([4]; wild-type mice, oral 25 mg/kg ritonavir alone, 2 h 15 min): 123 ± 57.8 pmol/g
